Test results published in patent US12485182B2, “Proteoglycan mimetics for enhanced wound healing, angiogenesis, and vascular repair” (The Regents of the University of California, priority 2018, dated 2025).
“Also recorded” adds a separate entry of the source. Blank lines part the entries; values can stand above or below the substance they belong to. Positions of bridges follow the written chain, without caps; N, C: chain ends. Non-standard residues stand in square brackets, D forms with d. No end group written: not given here.

Columns and labels:
[1] = test system: EC; test: EC migration on collagen surfaces; type: cell-based
[2] = test system: platelets (platelet-rich plasma); test: Platelet binding under flow on collagen-coated microchannels; type: cell-based; details: PRP, shear rate 750 s^−1, 4 minutes
Protocol: Flow kits from Ibidi (Martinsried, Germany) were used to measure […] recruitment under flow conditions. Microchannels were coated with equine fibrillar type I collagen (Chronolog, Havertown, PA) diluted in 0.85% sodium chloride and incubated for one hour at room temperature. Unbound collagen was removed by rinsing three time with 1×PBS. The treatment molecule (DS-SILY, LXW7-DS-SILY, or LXW7-(SILY)2) was incubated in the channel for 30 minutes at room temperature, and unbound peptidoglycan was rinsed with 1× PBS.
Next, 15 mL of blood was drawn into sodium citrate vacutainers by venipuncture and centrifuged for 20 minutes at 200 Gs and 37° C. and the top layer of platelet-rich plasma (PRP) was collected. A syringe pump was used to flow PRP through microchannels at 4.2 mL/hr for a shear rate of 750 s^−1. After 4 minutes, the channels were rinsed with 100 μL, PBS to remove unbound cells. Adherent cells were stained with 10 μM CellTracker Green (ThermoFisher Scientific) in media for 30 minutes at 37° C. Channels were rinsed with 1× PBS and total fluorescence and cell number in the channels were quantified using ImageJ (NIH, Bethesda, MD).

[3] = test system: denuded arteries; test: Ossabaw pig angioplasty model, neointimal hyperplasia (1-month recovery); type: in vivo; details: with and without stents, vs sham
Protocol: (§1) An In vivo Ossabaw pig angioplasty model was used to assess platelet deposition (acute) and neointimal hyperplasia (1-month recovery) with DS-SILY treatment. Porous angioplasty balloons were employed for delivery of soluble DS-SILY to the target arteries in the peripheral vasculature of pigs. Renal, femoral, and iliac arteries were denuded by balloon expansion, followed by delivery through the porous balloon. Arteries were treated with and without the use of a bare metal stent and the healing response was assessed for neointimal hyperplasia. Neointimal hyperplasia was assessed by histology after 1-month recovery by measuring the distance between the internal elastic lamina and the lumen, or between a stent post and the lumen (FIG. 32).

[4] = test system: platelets; test: Platelet binding and activation on a collagen surface in vitro; type: cell-based
[5] = test system: SMCs; test: DS-SILY effects on SMCs; type: cell-based
[6] = test system: collagen; test: DS-SILY binding to collagen
[7] = test system: denuded arteries; test: Ossabaw pig angioplasty model, platelet deposition (acute); type: in vivo; details: vs saline
Protocol: as §1, with “hyperplasia.” for “hyperplasia. Neointimal hyperplasia was assessed by histology after 1-month recovery by measuring the distance between the internal elastic lamina and the lumen, or between a stent post and the lumen (FIG. 32).”
Arteries for assessing the acute response of balloon injury were harvested within hours of angioplasty. The arteries were rinsed with saline and fixed in 10% formalin overnight, and prepared for SEM visualization. […] High magnification images in FIG. 31 show numerous projections and spreading of platelets on sham control arteries, indicative of platelet activation.

[8] = test system: ischemic wounds; details: exogenous VEGF; cited from earlier work
[9] = test system: chick chorioallantoic membrane; test: Ex ovo CAM assay, treatments eluting from collagen gels; type: in vivo; details: after 24 hours
Protocol: Fertilized Hyline eggs obtained from the Avian Facility at UC Davis were incubated at 37° C. for 72 hours with 6 rotations per day at 80% humidity in a Grumbach egg incubator. On day 3, eggs were cracked open into disinfected weighboats (VWR) and covered with lids from square petri dishes (Fisher), and the embryos developed over a week in the incubator. On day 10, treatments encapsulated in collagen I gels were gently placed on the developing CAM. For experiments involving treatments freely eluting from the collagen gels, 100 μL of gel was polymerized in a 10-mm diameter rubber mold against a sterilized glass slide, and 1 treatment gel and 1 control gel was placed per CAM. The number of vessels in a 2-mm radius immediately surrounding the gel was manually counted in imageJ immediately after placement and 24 hours later to determine changes surrounding vessels. The change in vessels over 24 hours for treatment gels were normalized to the respective change in the control gel on the same developing embryo.

[10] = test system: HMVEC monolayer; test: Endothelial monolayer permeability (transwell, RITC-dextran); type: cell-based, human; details: by 72 hours
Protocol: The following day, an additional 50,000 cells were seeded to each insert and allowed to grow for another 24 hours. Media was then removed and replaced with 0.5 mL media to the bottom well and 0.1 mL of treatment media to the insert for 10 minutes. Treatment was removed and 0.3 mL of 1 mg/mL RITC-dextran in media was then added to each transwell insert and allowed to permeate for 30 minutes. Sample permeate was then assayed on a SpectraMax M5 plate reader for fluorescence (excitation: 570 nm; emission: 590 nm). RITC-dextran solutions and sample permeates were then aspirated and replaced with another 0.1 mL of treatment media in the transwell insert and 0.5 mL media in the bottom chamber. This procedure was repeated daily over 4 days. Treatments were also compared to inserts with cells removed by rubbing away with a pipette tip to determine the barrier efficacy of the monolayer and the degree of increased permeability.

[11] = test system: HCAECs; test: Attachment of HCAECs to peptide-treated surfaces; type: cell-based, human; details: biotin-peptide on Avidin-coated wells
Source text: (§2) FIG. 33. Attachment of cells and platelets to LXW7 and GRGD (SEQ ID NO: 2) treated surfaces. (A) Images of attached HCAECs (left panels), THP-1 monocytes (middle panels) and platelets (right panels) on surfaces treated by D-Biotin (a-c) (control), LXW7 (d-f) or GRGD (SEQ ID NO: 2) (g-i). Scale bars in a, b, d, e, g and h are 50 μm. Scale bars in c, f and i are 20 μm. (B) The number of cells or platelets attached on different treated surfaces were quantified and statistical analyses were performed. Data were expressed as mean±standard deviation: **p<0.01 (n=4).
(§3) Using primary artery-derived ECs and blood-derived EPCs as living probes to screen One-Bead-One-Compound (OBOC) combinatorial peptide libraries, several high-affinity binding ligands against the αvβ3 integrin on the surface of EPCs/ECs were identified. […] The LXW7 peptide, when grafted to surfaces, supports adhesion and spreading of EPCs and human coronary ECs, but not platelets or monocytes. […] After washing with PBS and blocking with 1% BSA wells were ready for cell attachment with 5×10^4 HCAECs or THP-1 monocytes suspended in the respective maintenance medium, or freshly isolated platelets at a density of 5×10^7 platelets/cm^2 incubated for 16 h at 37° C., 5% CO2. […] Quantification of images was performed using the Image J software (NIH).

[12] = test system: platelets; test: LXW7 binding to platelets; type: cell-based
Protocol: (§4) Using primary artery-derived ECs and blood-derived EPCs as living probes to screen One-Bead-One-Compound (OBOC) combinatorial peptide libraries, several high-affinity binding ligands against the αvβ3 integrin on the surface of EPCs/ECs were identified. […] The LXW7 peptide, when grafted to surfaces, supports adhesion and spreading of EPCs and human coronary ECs, but not platelets or monocytes. Culture plates, 24-well, were coated with 500 μL of 20 μg/mL Avidin for 1 hour at 37° C. followed by washing with PBS and coating with either 500 μL molar equivalents of D-biotin, LXW7-biotin, or GRGD (SEQ ID NO: 2)-biotin. After washing with PBS and blocking with 1% BSA wells were ready for cell attachment with 5×10^4 HCAECs or THP-1 monocytes suspended in the respective maintenance medium, or freshly isolated platelets at a density of 5×10^7 platelets/cm^2 incubated for 16 h at 37° C., 5% CO2. The cells were washed with PBS, and fixed in 10% formalin for 20 min. For evaluation of HCAEC, the cells were blocked with 1% BSA and incubated overnight with mouse anti-CD31 antibody (1:100; Abcam) in 1% BSA at 4° C., followed by probing with goat anti-mouse Alexa Fluor 594 conjugate in 1% BSA. Nuclei were stained with DAPI. Images were captured using an Olympus IX81 microscope. […] Quantification of images was performed using the Image J software (NIH).

[13] = test system: THP-1 monocytes; test: LXW7 binding to THP-1 monocytes; type: cell-based
Protocol: as §4

[14] = test system: THP-1 monocytes; test: Attachment of THP-1 monocytes to peptide-treated surfaces; type: cell-based; details: biotin-peptide on Avidin-coated wells
Source text: as §2, §3

[15] = test system: ECs; test: Proliferation of ECs on LXW7-treated surfaces (MTS assay); type: cell-based; details: surface-grafted LXW7 vs D-biotin control
Source text: (§5) FIG. 34. Effects of LXW7 on EC biological functions. (A) Proliferation of ECs on LXW7-treated surfaces and D-biotin treated surface (control) assessed by MTS assay. Data were expressed as mean±standard deviation: **p<0.01, ***p<0.001 (n=4). (B) Western-blot analysis of the effect of LXW7 on phosphorylation of VEGFR2 (Tyr1175) and phosphorylation of ERK1/2 (left panels) and quantified by densitometry (right panels). Data were expressed as mean±standard deviation: *p<0.05, **p<0.01 (n=4).
(§6) To test the ability of LXW7 to promote endothelialization, we evaluated polymer-based small diameter vascular grafts (ID 1 mm) functionalized with LXW7 via Click chemistry in a rat carotid artery bypass model (FIG. 35). […] After 6 weeks post implantation, 5 out of 6 LXW7-modified grafts were patent versus only 1 out of 6 control grafts was patent (FIG. 35). […] This confirms that LXW7 coating on the luminal surface of synthetic vascular grafts can generate a “living” endothelium.

[16] = test system: platelets; test: Attachment of platelets to peptide-treated surfaces; type: cell-based; details: biotin-peptide on Avidin-coated wells
Source text: as §2, §3

[17] = test system: VEGFR2; test: Western-blot, phosphorylation of VEGFR2 (Tyr1175); type: cell-based; details: surface-grafted LXW7
Source text: as §5, §6

[18] = test system: primary EPCs/ECs; test: LXW7 binding to primary EPCs/ECs; type: cell-based
Protocol: as §4

[19] = test system: ERK1/2; test: Western-blot, phosphorylation of ERK1/2; type: cell-based; details: surface-grafted LXW7
Source text: as §5, §6

binding to collagen [6]: high affinity
Substance: DS-SILY: antithrombotic proteoglycan mimetic; dermatan sulfate with collagen-binding SILY peptides (RRANAALKAGELYKSILYGSG; not fully specified; also: conjugated to dermatan sulfate backbone, attachment not given here)
promotion of EC migration compared to control collagen surfaces [1]: up to 32%
platelet binding under flow [2]: low platelet binding
neointimal hyperplasia [3]: minimal intimal hyperplasia is observed
inhibition of platelet binding and activation on a collagen surface [4]: ~90%
SMC migration and proliferation [5]: suppresses SMC migration and proliferation
inflammatory cytokine production [5]: suppresses inflammatory cytokine production
protein production by SMCs [5]: suppresses, but does not eliminate protein production by SMCs
platelet activation (morphology) on denuded artery ([7]; SEM): remained largely rounded
platelet binding on denuded artery ([7]; delivery through porous balloon after balloon angioplasty): platelets are scarcely found on the denuded artery; also recorded: almost completely inhibited platelet binding

Substance: VEGF
increase in granulation tissue formation [8]: up to 150%
vasculogenic activity ([9]; 2 μg/mL): comparable vasculogenic activity
monolayer permeability vs untreated controls [10]: significantly different from untreated controls

HCAEC binding to treated surface [11]: supported robust HCAEC binding
binding to THP-1 monocytes [13]: does not bind
monocyte binding to treated surface [14]: not monocyte or platelet binding
binding to primary EPCs/ECs [18]: bind strongly
Substance: cyclic cGRGDdvc ([dC]GRGD[dD][dV][dC]; disulfide 1-8 (inferred)) [LXW7, cyclic octapeptide ligand against the αvβ3 integrin]
binding to platelets [12]: weakly
cell proliferation [15]: stimulated cell proliferation
platelet binding to treated surface [16]: not monocyte or platelet binding
phosphorylation of VEGF2 receptor [17]: stimulated
surrounding vessel growth ([9]; 100 μM eluted from collagen gels): either decreased or caused no changes in surrounding vessel growth
phosphorylation of ERK ½ [19]: stimulated
